What was measured:
[1] = test system: PC3 tumor; assay: Cerenkov luminescence imaging of PC3 tumor-bearing mice pretargeted with TCO-PEG4-AR then [90Y]Y-DOTA-Tz; assay type: in vivo; conditions: 1 nmol TCO-PEG4-AR, radiocomplex after 4 h
Protocol: The Cerenkov Luminescence Imaging of the prostate cancer PC3 tumor-bearing mice was carried out at different time points (15 min, 1 and 2 h) after intravenous injection of [^90Y]Y-DOTA-Tz. […] Thereafter, the CLI imaging of the PC3 tumor-bearing mice was carried out at different time points (15 min, 1 h). The images were obtained using PhotonIMAGER™ (BioSpace Lab).

[2] = test system: PC3 xenografts; assay: Ex vivo biodistribution of [90Y]Y-DOTA-Tz in mice bearing PC3 xenografts; conditions: PC3 xenograft mice
Source text: Currently, we are investigating the application of click chemistry using biomolecules that target prostate cancer. Therefore, since a non-specific tumor uptake might interfere with the specificity of the pre-targeting approach, we have performed in vivo studies of [^90Y]Y-DOTA-Tz in mice bearing PC3 xenografts to assess the possible non-specific uptake of the clickable radiocomplex in the tumor and in the tumor microenvironment. […] This type of optical imaging offers a high spatial resolution, and despite a limited penetration depth allows to image ^90Y, which is not easily feasible using PET or SPECT imaging ([32]). […] At the selected time points the majority of the compound was retrieved in the urine, with 88 and 96% of the I.D. excreted 1 and 2 h post-injection, respectively. page 9: from whole animal body. Blood samples were taken by cardiac puncture at sacrifice. […] The animals were kept under […] volume of approximate 390 ± 190 mm3. […] […] carried out on groups of 8 mice (n = 4). […] The animals were weighed and dissected.

[3] = Stability of the [90Y]Y-DOTA-Tz preparation (HPLC, radiolysis); assay type: physicochemical
Protocol: The radiolabelling with ^90Y was performed following the same procedure previously optimized for ^111In, using a buffer of 0.1 M ammonium acetate at pH 7 and heating the mixture at 80°C for 15 min. The DOTA-Tz chelator was added to a final concentration of 400–500 μM to yield [^90Y]Y-DOTA-Tz with specific activities up to 3.3 MBq/nmol and radiochemical yields above 90% (Supplementary Figure 4A). The radiocomplex [^90Y]Y-DOTA-Tz was synthesized with ~130 MBq of [^90Y]YCl3 and obtained in very high specific activity, after separation from the non-labeled DOTA-Tz chelator. The radiocomplex was recovered into phosphate buffer at pH 8 to neutralize the residual TFA from the HPLC mobile phase before its use in future biological studies. […] In order to stabilize the [^90Y]Y-DOTA-Tz preparation, a suitable ratio between the volume of phosphate buffer solution at pH 8 to neutralize the TFA from the HPLC purification and ascorbic acid as a radiolytic stabilizer had to be optimized. In initial experiments, the use of ascorbic acid as a buffer in the radiolabelling procedure led to the degradation of the tetrazine moiety. Similar effect was seen when the ascorbic acid solution (50 mg/mL) was added to the solution after labeling. […]

[4] = 1 h p.i., listed as [^90Y]Y-DOTA-Tz
[5] = 2 h p.i., listed as [^90Y]Y-DOTA-Tz

O=C([O-])CN1CCN(CC(=O)[O-])CCN(CC(=O)NCc2ccc(-c3nncnn3)cc2)CCN(CC(=O)[O-])CC1.[90Y+3] [[90Y]Y-DOTA-Tz]
Cerenkov imaging: tumor uptake ([1]; images at 15 min p.i.): some tumor uptake
Cerenkov imaging: activity localization ([1]; images at 1 h after the injection): majority of the activity localized in the kidneys
Biodistribution: Blood ([2]; 1 h p.i.): 1.59 ± 0.62 % I.D./g
Biodistribution: Bone ([2]; 1 h p.i.): 1.04 ± 0.25 % I.D./g
Biodistribution: Intestine ([2]; 1 h p.i.): 0.41 ± 0.2 % I.D./g
Biodistribution: Kidneys ([2]; 1 h p.i.): 3.65 ± 0.49 % I.D./g
Biodistribution: Liver ([2]; 1 h p.i.): 0.76 ± 0.07 % I.D./g
Biodistribution: Lung ([2]; 1 h p.i.): 1.24 ± 0.32 % I.D./g
Biodistribution: Muscle ([2]; 1 h p.i.): 0.5 ± 0.2 % I.D./g
Biodistribution: Pancreas ([2]; 1 h p.i.): 0.7 ± 0.32 % I.D./g
Biodistribution: Salivary Gland ([2]; 1 h p.i.): 0.68 ± 0.12 % I.D./g
Biodistribution: Spleen ([2]; 1 h p.i.): 1 ± 0.27 % I.D./g
Biodistribution: Stomach ([2]; 1 h p.i.): 0.65 ± 0.33 % I.D./g
Biodistribution: Tumour ([2]; 1 h p.i.): 1.0 ± 0.4 % I.D./g
Biodistribution: Blood [2, 4]: 1.59 % I.D./g
Biodistribution: Kidneys [2, 4]: 3.6 % I.D./g
Biodistribution: Blood ([2]; 2 h p.i.): 0.22 ± 0.01 % I.D./g
Biodistribution: Bone ([2]; 2 h p.i.): 0.54 ± 0.04 % I.D./g
Biodistribution: Intestine ([2]; 2 h p.i.): 0.17 ± 0.05 % I.D./g
Biodistribution: Kidneys ([2]; 2 h p.i.): 2.54 ± 0.71 % I.D./g
Biodistribution: Liver ([2]; 2 h p.i.): 0.49 ± 0.15 % I.D./g
Biodistribution: Lung ([2]; 2 h p.i.): 0.31 ± 0.04 % I.D./g
Biodistribution: Muscle ([2]; 2 h p.i.): 0.15 ± 0.01 % I.D./g
Biodistribution: Pancreas ([2]; 2 h p.i.): 0.27 ± 0.12 % I.D./g
Biodistribution: Salivary Gland ([2]; 2 h p.i.): 0.17 ± 0.02 % I.D./g
Biodistribution: Spleen ([2]; 2 h p.i.): 0.33 ± 0.16 % I.D./g
Biodistribution: Stomach ([2]; 2 h p.i.): 0.23 ± 0.08 % I.D./g
Biodistribution: Tumour ([2]; 2 h p.i.): 0.37 ± 0.17 % I.D./g
Biodistribution: Blood [2, 5]: 0.22 % I.D./g
Biodistribution: Kidneys [2, 5]: 2.5 % I.D./g
Biodistribution: Tumour [2, 5]: 0.37 % I.D./g
in vitro stability of the preparation ([3]; 3 μL ascorbic acid (50 mg/mL) and 147 μL phosphate buffer pH 8, up to 20 h after the radiolabelling): excellent in vitro stability
stability of the preparation ([3]; recovered into phosphate buffer pH 8, no stabilizer, after 2 h at room temperature): high degradation

— article PMC8225959, “Clickable Radiocomplexes With Trivalent Radiometals for Cancer Theranostics: In vitro and in vivo Studies” (Frontiers in Medicine, 2021)
